Data from a melting point compilation (Tetko et al.).

Row | SMILES | melting point [°C]
1 | CON(C)S(=O)(=O)c1ccc(C(=O)O)cc1 | 210 to 212
2 | Cc1cc(=O)oc2cc(OCC(=O)NN)ccc12 | 179 to 181
3 | NNC(=O)c1ccc2c(c1)OCCO2 | 142 to 144
4 | O=C(O)c1ccc(-c2ccccc2)o1 | 153 to 155
5 | O=C(O)C1CCCN1c1ncnc2sccc12 (stereo not given) | 211 to 213
6 | Nc1cccnc1Oc1ccccc1 | 107 to 109
7 | O=C(O)c1n[nH]c(=O)c2ccccc12 | 230 to 232
8 | OCc1nnc(-c2ccccc2)n1-c1ccccc1 | 199 to 201
9 | O=C(O)c1ccc(O)c(-c2ccccc2)c1 | 142 to 144
10 | COc1ccc(C2CCCCC(O)C2)cc1 (stereo not given) | 49 to 51
11 | CCC(=O)Cc1ccc(Cl)cc1Cl | 37 to 39
12 | O=C(O)C1CCN(S(=O)(=O)c2ccc3c(c2)CCCC3)CC1 | 181 to 183
13 | Clc1c(Br)ccc2ccccc12 | 51 to 53
14 | Cc1ncc(CN2CCNCC2)s1 | 79 to 81
15 | Nc1nc(CCl)nc2sc3c(c12)CCCC3 | 174 to 176
16 | Cc1c(S(=O)(=O)Cl)sc2cc(Cl)ccc12 | 83 to 85
17 | Brc1cnc2nc[nH]c2c1 | 217 to 219
18 | CCOC(=O)C(=O)c1ncc(Cl)n1C | 46 to 48
19 | C#CCNC(=O)Nc1ccc(Cl)cc1 | 211 to 213
20 | Cc1ccc(Br)c(S(=O)(=O)Cl)c1 | 57 to 59
21 | CCOc1ccccc1NC1=NCCS1 | 55 to 57
22 | O=C1NC(=O)C(c2ccccc2OC(F)(F)F)N1 (stereo not given) | 156 to 158
23 | CC(Oc1ccc(O)cc1)C(N)=O (stereo not given) | 138 to 140
24 | CC(C)(C(=O)O)c1ccc2ccccc2c1 | 146 to 148
25 | Cn1c(=O)oc2ccc(N)cc21 | 229 to 231

Row | SMILES | melting point [°C]
26 | NNC(=O)c1cccc(S(=O)(=O)N2CCCC2)c1 | 153 to 155
27 | N#Cc1cc(C(=O)C(Cl)(Cl)Cl)c[nH]1 | 129 to 131
28 | Cc1nnc(Cl)c2ccccc12 | 123 to 125
29 | CC(=O)CCc1ccc(OCCC(=O)O)cc1 | 102 to 104
30 | CN(C)C(=O)c1cccc(S(N)(=O)=O)c1 | 121 to 123
31 | O=C(O)CNC(=O)c1ccc(F)cc1 | 169 to 171
32 | COc1cc(Cl)c(C)cc1N | 102 to 103
33 | O=c1[nH]c(-c2cccc(F)c2)cs1 | 198 to 200
34 | NC(=S)c1ccco1 | 132 to 134
35 | Nc1cc(Cl)c(NC(=O)c2cnccn2)c(Cl)c1 | 195 to 197
36 | NC(=O)c1ccnc(F)c1 | 175 to 177
37 | COCCn1c(N)cc(=O)[nH]c1=O | 90 to 92
38 | Cc1ccc(-n2c(S)nnc2-c2ccncc2)cc1C | 260 to 262
39 | Nc1ncc(Cc2ccc(S(N)(=O)=O)cc2)s1 | 177 to 179
40 | CC(C)CC(=O)NCCc1ccc(S(=O)(=O)Cl)s1 | 79 to 81
41 | CC1CCc2c(C(=O)O)csc2C1 (stereo not given) | 178 to 180
42 | O=C(Cn1cnnn1)N1CCNCC1 | 143 to 145
43 | O=C(O)c1coc(Br)c1 | 133 to 135
44 | O=C(O)C1CCCCN1S(=O)(=O)c1ccc(Br)cc1 (stereo not given) | 133 to 135
45 | CC(C)(C)OC(=O)Nc1cccc2c1OCO2 | 89 to 91
46 | O=S(=O)(Cl)c1csc(-c2ccccc2)n1 | 86 to 88
47 | CS(=O)(=O)c1cccc(C(=O)NN)c1 | 144 to 146
48 | Cc1ccc(N(C)S(=O)(=O)c2cccc(C(=O)O)c2)cc1 | 162 to 164
49 | COc1cc(C(=O)O)ccc1OCc1c(C)noc1C | 216 to 218
50 | COc1ccc(N)cc1OCc1cn2ccccc2n1 | 190 to 192

Row | SMILES | melting point [°C]
51 | NC(=O)C(Cl)c1ccc(F)cc1 (stereo not given) | 93 to 95
52 | Sc1nnc(C2CC2)n1Cc1ccco1 | 260 to 262
53 | O=C1NC(=O)C2(CC(C(=O)O)C2)N1 (stereo not given) | 246 to 248
54 | N#CSCC(=O)c1ccccc1C(F)(F)F | 49 to 51
55 | Cc1[nH]c2ccccc2c1CC#N | 79 to 81
56 | CC(Cl)C(=O)Nc1ccc(Cl)cc1C(F)(F)F (stereo not given) | 107 to 109
57 | N#Cc1cccnc1N1CCCC1 | 36 to 38
58 | O=C(O)CCNS(=O)(=O)c1cccc([N+](=O)[O-])c1 | 134 to 136
59 | O=C(CCl)Nc1ccccc1Br | 78 to 80
60 | Cc1cc(C)cc(N2CCC(C(=O)O)C2=O)c1 (stereo not given) | 115 to 117
61 | Cc1cc(N)n(CCC#N)n1 | 104 to 106
62 | O=[N+]([O-])c1cc(Cl)ccc1I | 63 to 65
63 | CN1C(=C(C#N)C(=O)CCl)Nc2ccccc21 | 244 to 246
64 | O=C(O)c1c(O)cc(=O)n2c1CCC2 | 236 to 238
65 | O=S(=O)(Cl)C1=Cc2ccccc2CC1 | 59 to 61
66 | CCc1nc(C)ncc1C(=O)O | 158 to 160
67 | COCCNC(=O)Cc1ccc(N)cc1 | 50 to 52
68 | O=C1NC2(CCNCC2)NC12CCCCC2 | 276 to 278
69 | CC(C)c1ccccc1OCCC(=O)O | 84 to 86
70 | Fc1ccc(-c2n[nH]cc2Br)cc1 | 141 to 143
71 | N#Cc1ccc(OCc2cccc(C(=O)O)c2)cc1 | 221 to 223
72 | Cc1nc(N)cc(C2CC2)n1 | 159 to 161
73 | Cc1ccc(F)c(N)c1C(=O)O | 114 to 116
74 | Cn1c(=O)oc2c(C(=O)O)cccc21 | 309 to 311
75 | COc1ccc2c(c1)OCC(C(=O)O)=C2 | 201 to 203

Row | SMILES | melting point [°C]
76 | Nc1nc(=O)c2ccccc2s1 | 274 to 276
77 | Cc1cc(NC(N)=O)ccc1Br | 185 to 187
78 | Nc1c(C(=O)c2ccco2)oc2ccccc12 | 180 to 182
79 | Cc1nc(O)c2c(n1)CCCC2 | 206 to 208
80 | O=C(O)c1sccc1S(=O)(=O)Nc1ccc(F)cc1 | 180 to 182
81 | COc1ccc(-c2nnc(S)n2C(C)C)cc1 | 218 to 220
82 | Brc1cnc2nc3ccccc3n2c1 | 269 to 271
83 | Cc1nc(-c2ccc(Cl)s2)sc1C(=O)O | 255 to 257
84 | O=C(O)c1ccc(Cl)c(NS(=O)(=O)c2ccc(F)cc2)c1 | 211 to 213
85 | C#CCOc1ccc(Br)cc1C=O | 94 to 98
86 | COc1ccc(CNc2nnc(S)s2)cc1 | 137 to 139
87 | CC(C)(C)c1cc(NC(=O)CCl)on1 | 95 to 97
88 | COc1ccc(N2CCC(=O)CC2)cc1 | 66 to 68
89 | N#Cc1n[nH]c2ccc(Cl)cc12 | 210 to 212
90 | O=C(O)C1CSCN1C(=O)C1CCC1 (stereo not given) | 115 to 117
91 | CCc1c(C(=O)O)cnn1C | 144 to 146
92 | O=Cc1ccc2cn[nH]c2c1 | 179 to 181
93 | NCC(=O)N1CCN(c2ccccc2)CC1 | 69 to 71
94 | CC(=O)OCc1ccc(Cl)cc1C#N | 54 to 56
95 | COc1cc(Br)c(S(=O)(=O)Cl)cc1C(=O)O | 196 to 198
96 | Cn1cccc1C(=O)N1CCNCC1 | 58 to 60
97 | O=S1(=O)CCC(Cl)CC1 | 129 to 131
98 | Nc1ccc2nc(C3CC3)oc2c1 | 99 to 101
99 | Cc1cc2ccn(C)c2c(=O)[nH]1 | 189 to 191
100 | O=C(O)Cn1ccc2cc([N+](=O)[O-])ccc21 | 192 to 194

Row | SMILES | melting point [°C]
101 | CC(C)(O)c1cn(-c2ccccc2)nn1 | 89 to 91
102 | COCCOc1ccc(C(C)=O)cc1 | 38 to 40
103 | O=C(O)c1cn(Cc2ccccc2)nc1-c1cccs1 | 131 to 133
104 | CSc1c[nH]nc1N | 76 to 78
105 | CCN1N=C(c2ccccc2)CC1=O | 140 to 142
106 | COc1cc(Br)[nH]n1 | 70 to 72
107 | CN(C)C(=O)N1CCC(C(=O)O)CC1 | 146 to 148
108 | Cc1cc(C)c2c(C(=O)O)cc(C3CC3)nc2c1 | 217 to 219
109 | N#Cc1ccc(Cn2cnc(N)n2)cc1 | 169 to 171
110 | O=C(CCl)Nc1cc(-n2cnnn2)ccc1F | 185 to 187
111 | CC(Cl)c1nnc(-c2ccc(Cl)cc2Cl)o1 (stereo not given) | 55 to 57
112 | COC(=O)C(=O)CC(=O)c1cccc(Cl)c1 | 29 to 31
113 | O=C(O)CNS(=O)(=O)Cc1ccccc1 | 153 to 155
114 | Cc1cc(C)c2nc(N)sc2c1 | 135 to 137
115 | NC(=S)c1ccccc1O | 118 to 120
116 | O=C(O)Cn1ncc2ccc([N+](=O)[O-])cc21 | 219 to 221
117 | ClC(c1ccccc1)c1nc(-c2ccccc2)no1 (stereo not given) | 74 to 76
118 | NCC(=O)Nc1ccccc1-n1cncn1 | 118 to 120
119 | COC(=O)CCNc1ccncc1[N+](=O)[O-] | 93 to 95
120 | O=C(O)c1sccc1S(=O)(=O)Nc1cccc2cn[nH]c12 | 236 to 238
121 | NS(=O)(=O)CCc1ccccc1 | 122 to 124
122 | COc1ccc(CC(=O)O)c(Cl)c1 | 118 to 120
123 | Nc1ccc(S(=O)(=O)Nc2ccc([N+](=O)[O-])cc2)cc1 | 162 to 164
124 | O=C1CSc2ccncc2N1 | 203 to 205
125 | O=C(c1ccccc1F)N1CCC(O)CC1 | 104 to 106

Row | SMILES | melting point [°C]
126 | Cc1sc(=O)n(CCC(=O)O)c1C | 150 to 152
127 | CS(=O)(=O)CCC(NC(=O)c1ccc(Cl)cc1)C(=O)O (stereo not given) | 184 to 186
128 | O=C(CC(=O)Nc1cc(Cl)ccc1Cl)Nc1cc(Cl)ccc1Cl | 226 to 228
129 | CCc1n[nH]c(C(=O)O)c1Cl | 199 to 201
130 | Nc1ccc(Nc2ccc(F)cc2)c2ccncc12 | 153 to 155
131 | NNc1nc(-c2ccccc2)no1 | 177 to 179
132 | CC1(C2CCCCC2)NC(=O)NC1=O (stereo not given) | 113 to 115
133 | Cc1ccc(N2C(=O)CC(C(=O)O)C2c2cccs2)cc1 (stereo not given) | 175 to 177
134 | CSCc1nnc(S)o1 | 71 to 73
135 | COc1ccc(C(C)=O)cc1Cn1cccn1 | 80 to 82
136 | O=C(CCl)NCCc1cccs1 | < 17
137 | Brc1ccc(Cn2cccn2)cc1 | 43 to 45
138 | O=C(O)C=Cc1ccnc2ccccc12 | 256 to 258
139 | CCOCCOc1ccc(Br)cc1/C=C/C(=O)O | 109 to 111
140 | O=C(O)CCCNS(=O)(=O)c1cccc(C(F)(F)F)c1 | 152 to 155
141 | Cc1nc(-c2ccc(S(=O)(=O)Cl)cc2)co1 | 84 to 86
142 | Cc1cc(C(=O)O)c(C)n1-c1ccccc1Br | 164 to 166
143 | Nc1ccccc1N1CCC(O)CC1 | 117 to 119
144 | CCC(=O)N(c1nnc(S)s1)C1CC1 | 195 to 197
145 | Cc1cc(C)c2c(C#N)c[nH]c2n1 | 316 to 318
